Key:
[1] = test system: HSP70; assay: HSP70 levels in Neuro 2A cells by ELISA; assay type: cell-based, mouse; conditions: 10 uM compound for 48 hrs, then GGTI-298 24 hrs
Protocol: Mouse neuroblastoma 2a cells were cultured in DMEM with 10% FBS for 24 hrs. […] After 24 hrs cells were harvested and lysates were prepared and analyzed by ELISA for HSP70. Compound ID numbers in table refer to structures in Table 1 and Table 2.

[2] = test system: Neuro2A cells treated with A-beta (O); assay: Rescue of amyloid-beta oligomer induced cytotoxicity in Neuro 2A cells (CellTiter-Glo); assay type: cell-based; conditions: Mus musculus, N2a, compound 1 uM, A-beta (O) together with compound 48 hr, read-out: % viability vs. untreated
Protocol: Preparation of amyloid-beta oligomer (A-beta (O)): Synthetic wild type A-beta (1-42) was purchased from American Peptide, and first dissolved with hexafluoroisopropanol (HFIP), then dried in the blowing tissue culture hood overnight to form a film in the eppendorf tube. The A-beta peptide film was first resuspended with DMSO to a concentration of 5 mM, further diluted with DMEM containing N2 supplement (Invitrogen) to achieve a concentration of 100 μM, and then sonicated in room temperature water bath for 10 minutes. The 100 μM peptide solution was then incubated at 4° C. for 24 hr and thoroughly vortexed before applied to cells.
Mouse neuroblastoma Neuro2A cells were plated in 96-well plates and cultured in DMEM supplemented with 10% FBS for 24 hr. […] At the end of incubation, cells were harvested and subjected to viability assay using CellTiter-Glo Luminescent Cell Viability Assay Kit (Promega). The data for each treatment was calculated as average of 4 replicates and normalized to that of A-beta (O) treated only. Compound ID numbers in table refer to structures in Table 1 and Table 2.

[3] = test system: Murine neuro2A neuroblastoma cells; assay: Neurite outgrowth of neuro2A cells inhibited with GGTI-298 (Example 30); assay type: cell-based, mouse; conditions: for Median Counts of cells with neurite outgrowth: CNS-102 vs CNS-103 experiment (no inhibition 60.3, PBS 18.5); for Relative %: relative to uninhibited count
Protocol: Differentiation was induced and cells incubated with geranylgeranyl transferase I inhibitor, GGTI-298. After 24 h digital images were taken and neurite outgrowth was quantified. The comparisons of the neuroprotective effect of these three compounds are shown below.
The estimated mean log10 counts, from five replicate wells for each treatment group were calculated by PROC GLM in SAS assuming a pooled estimate of variation.
The estimated mean log10 counts from five replicate wells for each treatment group were calculated by PROC GLM in SAS assuming a pooled estimate of variation.
Differences in mean log(counts) between treatments for each concentration were calculated using PROC GLM in SAS. The p-value given is for the comparison of the estimated difference to zero, the expected difference value for no treatment effect. The anti-log of the differences represent the estimated ratio of counts (relative effect on inhibition) and are tabulated below along with the lower and upper 95% confidence intervals.

[4] = test system: Rap1; assay: Prenylation of Rap1 in Neuro2A cells with GGTI-298 (western blot); assay type: cell-based, mouse; conditions: 100 nM; percentage of control treatments (GGTI only)
Protocol: Mouse neuroblastoma Neuro2A cells were cultured in DMEM supplemented with 10% FBS for 24 hrs. The cells were treated with 102GGA derivative compounds for 24 hrs first before GGTase inhibitor GGTI-298 was added to the culture medium for additional 24 hr incubation. […] Both un-prenylated and total Rap1 protein bands were quantified using Image J and normalized to their respective loading control GAPDH. The results for control and each compound treatment were calculated as the ratio of normalized un-prenylated Rap1 to total Rap1, and averaged from two biological repeats of one experiment. The final results were presented as a percentage of the control treatments (GGTI only) from the same batch experiment. The data shown in the chart were averaged from two repeats of one experiment and presented as the ratio of normalized un-prenylated Rap1 to total Rap1. Compound ID numbers in table refer to structures in Table 1 and Table 2.

[5] = test system: HSP70; assay: HSP70 expression in Neuro2A cells by western blot; assay type: cell-based, mouse; conditions: for HSP70 western signal (absence of compounds = 1.00): 48 hours, then GGTI-298
Protocol: Differentiation was induced and cells incubated with geranylgeranyl transferase I inhibitor, GGTI-298. Cells were harvested and lysates were prepared and analyzed by western blot for HSP70 and HSP90. Western signals in the absence of the compounds were normalized as 1.00.

[6] = test system: Mouse Neuro2A neuroblastoma cells; assay: Neuro2A cells with neurites after GGTI-298 (Example 16); assay type: cell-based; conditions: 10 μM, 48 hrs
Protocol: Mouse Neuro2A neuroblastoma cells were cultured in DMEM supplemented with 10% FBS for 24 hrs. […] Then differentiation was induced by retinoic acid in DMEM supplemented with 2% FBS. The cell culture was incubated with a Geranylgeranyl Transferase inhibitor, GGTI-298. […]

[7] = test system: Sprague-Dawley rats injected with Kainic acid; assay: Kainic acid induced neurodegeneration and seizure in rats (Example 21); assay type: in vivo, rat; conditions: oral
Description: Seizure behaviors were observed and scored (Ref. R. J. Racine, Modification of seizure activity by electrical stimulation: II. Motor seizure, Electroencephalogr. Clin. Neurophysiol. 32 (1972) 281-294. Modifications were made for the methods). Brain tissues of rats were sectioned on histology slides, and neurons in hippocampus tissues were stained by Nissl. Neurons damaged by Kainic acid and behavior scores were quantified.

[8] = test system: Neuro2A cells; assay: Neuro2A cells that extended neurites, with GGTI-298 (Example 18); assay type: cell-based, mouse; conditions: 0.1-1 μM, vehicle 0.0-0.20
Description: After differentiation was induced, cells that extended neurites were counted.

[9] = 10000 nM, CNS-102 vs CNS-103 experiment

## CC(C)=CCC/C(C)=C/CC/C(C)=C/COC(=S)NC1CC1 [Compound 9d, Cyclopropyl 2E, 6E-farnesyl thiocarbamate]
[1]
  HSP70 ELISA signal (absence of compound normalized as 1.00): 0.95

## CC(C)=CCC/C(C)=C/CC/C(C)=C/CC/C(C)=C/CCC(C)=NO [Compound 103]
[2]
  viability at 1 µM: 128%

## CCC(=O)CC/C=C(\C)CC/C=C(\C)CCC=C(C)C [Compound 102]
[2]
  viability at 1 µM: 140%

## CC(=O)CC/C=C(/C)CC/C=C(\C)CC/C=C(\C)CCC=C(C)C [CNS-103]
[3]; 10 nM
  Median Counts of cells with neurite outgrowth: 26.7
[3]; 10 nM, CNS-102 vs CNS-103 experiment
  Relative %: 44.3%
[3]; 100 nM
  Median Counts of cells with neurite outgrowth: 29.3
[3]; 100 nM, CNS-102 vs CNS-103 experiment
  Relative %: 48.6%
[3]; 1000 nM
  Median Counts of cells with neurite outgrowth: 28.7
[3]; 1000 nM, CNS-102 vs CNS-103 experiment
  Relative %: 47.6%
[3]; [9]
  Protection %: −5.3%
  Relative %: 27%
[3]; 10000 nM
  Median Counts of cells with neurite outgrowth: 16.3
[3]; CNS-102 vs CNS-103 experiment, FIG. 4B
  maximum protection: ~26%
[4]
  unprenylated/total RAP1 (%): 96%
[5]; 100 nM
  HSP70 western signal (absence of compounds = 1.00): 1.00
[5]; 10 μM
  HSP70 western signal (absence of compounds = 1.00): 0.99
[5]; Neuro2A cells, western blot
  induction of HSP70 expression (in words): failed to induce expression of HSP70
[6]
  Mean of cell numbers (Arbitrary units): 0.195 Arbitrary units
[7]; 12 mg/Kg rat
  Mean of Hippocampus CA3 neurons damaged (Arbitrary units): 8.16 Arbitrary units
[7]; 25 mg/Kg rat
  Mean of Hippocampus CA3 neurons damaged (Arbitrary units): 10.64 Arbitrary units
[8]
  Mean of cell numbers (Arbitrary units): 0.20-0.45 Arbitrary units
